Test results reported in patent US6562115B2, “Azo dyes and their preparation and use” (Ilford Imaging Switzerland GmbH, priority 2000, dated 2003).

Test: Dye solubility in deionised water
Assay type: physicochemical
Conditions: for solubility (in words): assessment of state-of-the-art dyes in the background section
Protocol: An excess of dye was vigorously stirred in deionised water for 1 hour at a temperature of 50° C. The mixture was then cooled down to a temperature of 20° C. and filtered. Dye solubility was determined spectroscopically in the clear filtered solution.

Row | Compound | solubility (in words) | Solubility (in g per 100 ml of water) (excess dye stirred in deionised water 1 hour at 50° C., cooled to 20° C., filtered, determined spectroscopically) | solubility in comparison to the known dye Acid Red 37 (comparison drawn from Table 3)
1 | Acid Red 37 | not sufficient | 5 g per 100 ml of water | –
2 | Nc1ccc2cc(S(=O)(=O)[O-])cc(O)c2c1N=Nc1cc(NC(=O)CCC(=O)[O-])ccc1S(=O)(=O)[O-].[Na+].[Na+].[Na+] [Compound 120] | – | – | significantly higher
3 | Nc1ccc2cc(S(=O)(=O)[O-])cc(O)c2c1N=Nc1ccc(Nc2nc(NCCS(=O)(=O)[O-])nc(NCCS(=O)(=O)[O-])n2)cc1S(=O)(=O)[O-].[Na+].[Na+].[Na+].[Na+] [II] | high solubility | – | –
